ChEMBL document CHEMBL1152832, “Quantitative structure-activity relationship (QSAR) of aryl alkenyl amides/imines for bacterial efflux pump inhibitors” (2009)
≈ marks a conversion by molar mass, not a printed value. Calls of active or inactive are those of the source. The rule behind the calls is not given here.

These molecules were tested on Staphylococcus aureus (assay: microbe, parasite or virus in culture). Conditions: ATCC 29213, 24 h.
Description: Antibacterial activity against Staphylococcus aureus ATCC 29213 after 24 hrs
For `O=C(O)c1cn(C2CC2)c2cc(N3CCNCC3)c(F)cc2c1=O` [CIPROFLOXACIN], the MIC was 0.25 µg/mL (≈ 0.754 µM).

These molecules were tested on Staphylococcus aureus (assay: Inhibition of multidrug resistance efflux pump in Staphylococcus aureus ATCC 29213 assessed as potentiation factor measured by reduction in weighted average of ciprofloxacin MIC by serial dilution method). Conditions: not given.
`CCOC(=O)/C=C/C(C)=C/c1ccc2c(c1)OCO2` was tested, and the PF was “inactive” and the logPF was “inactive”. Work on `CCC(/C=C/C(=O)N1CCN(C)CC1)=C\c1ccc2c(c1)OCO2` yielded a PF of 130 and a logPF of 2.11. `CCC(/C=C/C(=O)Nc1ccccc1)=C\c1ccccc1` was tested, and the PF was 210 and the logPF was 2.32. For `CCC(/C=C/C(=O)NCC(C)C)=C\c1ccc2c(c1)OCO2`, the PF was 270 and the logPF was 2.43. Molecule `CCC(/C=C/C(=O)O)=C\c1ccc2c(c1)OCO2` has a PF of 10 and a logPF of 1. For `CCCCC(/C=N/c1ccccc1C(=O)O)=C\c1ccc(OC)cc1`, the PF was 100 and the logPF was 2. `CCC(CCC(=O)NCC(C)C)Cc1ccc2c(c1)OCO2` (stereo not drawn) gave a PF of 70 and a logPF of 1.85. `CCC(CO)NC(=O)/C=C/C(C)=C/c1ccc2c(c1)OCO2` (stereo not drawn) gave a PF of 30 and a logPF of 1.48. `CCCCC(/C=N/O)=C\c1ccc(OC)cc1` showed a PF of 100 and a logPF of 2. Work on `COc1ccc(/C=C(C)/C=C/C(=O)N2CCCCC2)cc1` yielded a PF of 130 and a logPF of 2.11. For `CCC(/C=C/C(=O)N1CCCCC1)=C\c1ccc2c(c1)OCO2`, the PF was 240 and the logPF was 2.38. For `CC(/C=C/C(=O)N1CCCC1)=C\c1ccc2c(c1)OCO2` (stereo in doubt; 3), the PF was 110 and the logPF was 2.04. Molecule `CC(=O)CNC(=O)CC(=O)/C=C/C(C)=C/c1ccc2c(c1)OCO2` has a PF of 310 and a logPF of 2.49. With `CC(/C=C/C(=O)NC(C)c1ccc(Br)cc1)=C\c1ccc2c(c1)OCO2` (stereo not drawn) the PF was 380 and the logPF was 2.58. `CCCCC(/C=N/C(CC)CO)=C\c1ccc(OC)cc1` (stereo not drawn) showed a PF of 100 and a logPF of 2. Molecule `CC(/C=C/C(=O)O)=C\c1ccc2c(c1)OCO2` has a PF of 10 and a logPF of 1. `COc1cc(/C=C(C)/C=C/C(=O)N2CCCCC2)ccc1O` was tested, and the PF was 10 and the logPF was 1. `CCC(/C=C/C(=O)NC(C)C=O)=C\c1ccc2c(c1)OCO2` (stereo not drawn) showed a PF of 30 and a logPF of 1.48. In the case of `COC(=O)/C=C/C(C)=C/c1ccc2c(c1)OCO2`, the PF is reported as “inactive” and the logPF is reported as “inactive”. `CCC(/C=C/C(=O)N1CCCC1)=C\c1ccc2c(c1)OCO2` gave a PF of 90 and a logPF of 1.95. In the case of `CCCC(/C=C/C(=O)N1CCN(C)CC1)=C\c1ccc2c(c1)OCO2`, the PF is reported as 60 and the logPF is reported as 1.78. With `CCCCCCC(/C=C/C(=O)N1CCCCC1)=C\c1ccc(OC)cc1` the PF was 130 and the logPF was 2.11. With `CC(/C=C/C(=O)N1CCOCC1)=C\c1ccc2c(c1)OCO2` the PF was “inactive” and the logPF was “inactive”. With `CCC(/C=C/C(=O)NCC(=O)OC)=C\c1ccc2c(c1)OCO2` the PF was 290 and the logPF was 2.46. Work on `CC(/C=C/C(=O)N1CCCCC1)=C\c1ccc2c(c1)OCO2` yielded a PF of 180 and a logPF of 2.25. With `CC/C=C/C(=C/c1ccc2c(c1)OCO2)CC` the PF was 20 and the logPF was 1.3. `O=C(/C=C/C=C/c1ccc2c(c1)OCCO2)N1CCOCC1` gave a PF of 40 and a logPF of 1.6. In the case of `CC(/C=C/C(=O)N1CCCC1)=C\c1ccc2c(c1)OCO2` (stereo in doubt; 12), the PF is reported as 130 and the logPF is reported as 2.11. For `CCCC(/C=C/C(=O)N1CCCCC1)=C\c1ccc2c(c1)OCO2`, the PF was 210 and the logPF was 2.32. `CCC(/C=C/C(=O)N1CCCCC1)=C\c1ccc(OC)c(OC)c1` gave a PF of 220 and a logPF of 2.34. In the case of `CCCCC(/C=C/C(=O)N1CCC(O)CC1)=C\c1ccc2c(c1)OCO2`, the PF is reported as 70 and the logPF is reported as 1.85. For `CCC(/C=C/C(=O)Nc1ccccc1C)=C\c1ccc2c(c1)OCO2`, the PF was 60 and the logPF was 1.78. Molecule `CCC(/C=C/C(=O)N[C@@](C)(O)c1ccccc1)=C\c1ccc2c(c1)OCO2` has a PF of 30 and a logPF of 1.48. For `CCC(/C=C/CN1CCCCC1)=C\c1ccc2c(c1)OCO2`, the PF was 70 and the logPF was 1.85. `CCCCC(/C=C/C(=O)N1CCCCC1)=C\c1ccc2c(c1)OCO2` gave a PF of 200 and a logPF of 2.3. Work on `CCC(/C=C/C(=O)Nc1ccccc1OC)=C\c1ccc2c(c1)OCO2` yielded a PF of 60 and a logPF of 1.78. For `CCC(/C=N/C(CC)CO)=C\c1ccc2c(c1)OCO2` (stereo not drawn), the PF was 150 and the logPF was 2.18. Work on `CC(/C=C/C(=O)N1CCC(O)CC1)=C\c1ccc2c(c1)OCO2` yielded a PF of 210 and a logPF of 2.32. For `CCC(CCCC(=O)NCC(=O)NCC(=O)OC)Cc1ccc2c(c1)OCO2` (stereo not drawn), the PF was 70 and the logPF was 1.85. Molecule `CCCC(/C=C/C(=O)N1CCCCC1)=C\c1ccc(OC)cc1` has a PF of 210 and a logPF of 2.32. With `C(/C=C/c1ccc2c(c1)OCO2)=C\CN1CCCCC1` the PF was 30 and the logPF was 1.48. In the case of `CCC(/C=C/C(=O)N1CCC(O)CC1)=C\c1ccc2c(c1)OCO2`, the PF is reported as 210 and the logPF is reported as 2.32. In the case of `CCCC(/C=C/C(=O)O)=C\c1ccc2c(c1)OCO2`, the PF is reported as “inactive” and the logPF is reported as “inactive”. For `CCCCC(/C=C/C(=O)N1CCN(C)CC1)=C\c1ccc2c(c1)OCO2`, the PF was 160 and the logPF was 2.2. `CC(/C=C/C(=O)N1CCN(C)CC1)=C\c1ccc2c(c1)OCO2` was tested, and the PF was 130 and the logPF was 2.11. In the case of `CCCC(/C=C/C(=O)N1CCN(C)CC1)=C\c1ccc(OC)cc1`, the PF is reported as 130 and the logPF is reported as 2.11.
